The values that follow come from publication PMC5427163, “Simple and cost-effective liquid chromatography-mass spectrometry method to measure dabrafenib quantitatively and six metabolites semi-quantitatively in human plasma” (Analytical and Bioanalytical Chemistry, 2017).

Marks after values point to notes of the source that are not given here.

The nature of data set [1]: LC-MS/MS measurement of dabrafenib and metabolites in patient plasma at steady state. It counts as in vivo, human. The note with it: for Plasma concentration in typical patient sample: Fig. 3, single patient sample; for Diff (difference between the highest and lowest concentrations) / Median C (plasma concentration) / Range of plasma concentration: patient plasma, steady state, dabrafenib 150 mg BID orally. On the procedure: Seven blood samples were obtained between 14 and 17 h after last dose from four different patients with disseminated melanoma after 1, 2, or 3 months of treatment with dabrafenib at the full recommended dose of 150 mg BID orally. […] Plasma was collected after centrifugation, immediately frozen, and stored at −80 °C until analysis. The study protocol was approved by the Ethical Review Board in Stockholm (DNR 2011/1980-31/1) and written informed consent was obtained from patients prior to study entry. Drug-free ethylenediaminetetraacetic acid (EDTA) plasma was donated from six volunteers (three males and three females) with an average age of 26 (22–30) years.
Fifty microliters aliquots of plasma was thawed and precipitated with 200 μL of internal standard mixture containing erlotinib-d6 (200 ng/mL) in acetonitrile. Following vortex mixing, the samples were centrifuged (17530 RCF, 5 min, 4 °C). The supernatant (150 μL) was mixed with 150 μL water and transferred to a 0.7-mL 96-well plate.
Calibration standards for dabrafenib were prepared at seven levels in the concentration range 5–5000 ng/mL (5-15-60-250-1000-3750-5000) by diluting the corresponding working stock solutions 1:10 with drug-free plasma. The upper limit of quantification (ULOQ) was selected based on the highest expected dabrafenib concentration, and the lower limit of quantification (LLOQ) was selected based on observed carry-over from the ULOQ. LOD was not determined as LLOQ was limited by the carry-over. QC samples were prepared separately from the calibration standards at four levels (LLOQ-low-medium-high, 5-15-250-3750 ng/ml).
Due to the lack of reference materials, the six metabolites were semi-quantitatively determined using the calibration curve for dabrafenib. The bias caused by, among other things, differences in recovery and ionization efficiency was not corrected for. This bias is indicated by the addition of an asterisk to the units of metabolite concentrations.

For data set [2] the following is noted: cited from earlier work; for Variation of plasma concentration during a 12-h period: after a 150-mg dose of dabrafenib at steady state (day 15).
For data set [3], the system named is BRAFV600E. Set-up: method as in earlier work. The note with it: cited from earlier work.
A short description of data set [4]: Clinical pharmacokinetics of dabrafenib (literature). The note with it: plasma. It is filed as in vivo, human.
On the set-up of data set [5]: method as in PMID 22735384. The note with it: phase III trial; cited from earlier work.
Data set [6] can be described thus: Stability of dabrafenib in spiked whole blood, plasma and processed samples. It is filed as in vitro ADME, human. The conditions noted are these: 72 h 4°C.
Assay in data set [7]: as above
It is filed as in vitro ADME, human. The conditions noted are these: for Concentration relative to nominal concentration (Rel): long term, −80 °C for 16 months. Here is the method:
Stability was evaluated at the low and high QC levels. Processed sample stability by re-injection of calibration and QC samples after 24 h at 5 °C. Freeze-thaw stability (n = 3) was determined for three freeze-thaw cycles at −80 °C. Short-term stability of dabrafenib was investigated in whole blood and plasma using spiked drug-free plasma (n = 2) stored at room temperature or 5 °C for 0, 24, 48, and 72 h, respectively. Long-term stability of dabrafenib (QC low, QC middle, and QC high; n = 3) was determined for a sample stored at −80 °C for 16 months. Accuracy within ±15% of the nominal value was required to consider dabrafenib stable under all conditions.

[8] abbreviates: semi-quantification based on the calibration curve of dabrafenib.
Setting [9] is: 14-17 h after last dose, semi-quantification based on the calibration curve of dabrafenib.

`CC(C)(CO)c1nc(-c2cccc(NS(=O)(=O)c3c(F)cccc3F)c2F)c(-c2ccnc(N)n2)s1` [Hydroxy-Dab, hydroxy-dabrafenib]: in data set [1] (setting [8]), the “Plasma concentration in typical patient sample” value is 280 ng/mL and the “Range of plasma concentration” value is on record as “(19–278) ng/ml”. In addition, in data set [1], the “Diff (difference between the highest and lowest concentrations)” value is listed as 15-fold. Further, in data set [1] (setting [9]), the “Median C (plasma concentration)” value is recorded as 74^a ng/ml. The “Variation of plasma concentration during a 12-h period” value in data set [2] is 7 fold. Besides, the “IC50 relative to dabrafenib (fold higher)” value in data set [3] is on record as “approximately 3 fold”.
Regarding `CC(C)(C(=O)O)c1nc(-c2cccc(NS(=O)(=O)c3c(F)cccc3F)c2F)c(-c2ccnc(N)n2)s1` [Carboxy-Dab, carboxy-dabrafenib], the “Concentration reported by Falchook et al. relative to this study (fold higher)” value in data set [4] came out at 8 fold. In data set [1] (setting [8]), the “Plasma concentration in typical patient sample” value came to 400 ng/mL and the “Range of plasma concentration” value was “(230–690) ng/ml”. Also, the “Diff (difference between the highest and lowest concentrations)” value in data set [1] is listed as 3-fold. Moreover, the “Median C (plasma concentration)” value in data set [1] (setting [9]) is recorded as 450^a ng/ml. Also, the “Variation of plasma concentration during a 12-h period” value in data set [2] is given as “around 1.5 fold”.
Take `CCCS(=O)(=O)Nc1ccc(F)c(C(=O)c2c[nH]c3ncc(-c4ccc(Cl)cc4)cc23)c1F` [vemurafenib]: the Inter-patient variability in data set [2] is 30–60%.
Consider `C=C(C)c1nc(-c2cccc(NS(=O)(=O)c3c(F)cccc3F)c2F)c(-c2ccnc(N)n2)s1` [M31], for which, in data set [1] (setting [8]), the “Plasma concentration in typical patient sample” value turned out to be 550 ng/mL and the “Range of plasma concentration” value is given as “(160–590) ng/ml”. Moreover, the “Diff (difference between the highest and lowest concentrations)” value in data set [1] is on record as 4-fold. In addition, the “Median C (plasma concentration)” value in data set [1] (setting [9]) is listed as 400^a ng/ml.
With `C=C(COC1OC(C(=O)O)C(O)C(O)C1O)c1nc(-c2cccc(NS(=O)(=O)c3c(F)cccc3F)c2F)c(-c2ccnc(N)n2)s1` (stereo not drawn) [Gluc met], in data set [1] (setting [8]), the “Plasma concentration in typical patient sample” value amounted to 32 ng/mL and the “Range of plasma concentration” value is “(22–65)^b ng/ml”. The “Diff (difference between the highest and lowest concentrations)” value in data set [1] was 3-fold. In addition, the “Median C (plasma concentration)” value in data set [1] (setting [9]) is on record as 38^a ng/ml.
With `CC(C)(C)c1nc(-c2cccc(NS(=O)(=O)c3c(F)cccc3F)c2F)c(-c2ccnc(N)n2)s1` [Dabrafenib], the “Plasma concentration in lowest patient sample” value in data set [1] (Fig. 2) came to 75 ng/mL. For the same compound, in data set [1] (quantitative), the “Plasma concentration in typical patient sample” value is recorded as 1400 ng/mL. For the same compound, the “Diff (difference between the highest and lowest concentrations)” value in data set [1] is recorded as 19-fold. Further, the “Median C (plasma concentration)” value in data set [1] (14-17 h after last dose, 7 samples from 4 patients, quantitative) stood at 400 ng/mL. The “Range of plasma concentration” value in data set [1] (14-17 h after last dose, quantitative) is recorded as “(75–1400) ng/ml”. In addition, in data set [5], the “Patients with adverse events of grade 2 or greater” value was 53%. For the same compound, the “Concentration relative to initial sample concentration (Rel)” value came to 109% in data set [6] (plasma, Low QC); 99% in data set [6] (whole blood, High QC); 99% in data set [6] (whole blood, Low QC); 106% in data set [7] (plasma, High QC, 72 h 4°C); 101% in data set [7] (plasma, High QC, 72 h RT); 96% in data set [7] (plasma, High QC, three freeze-thaw cycles at −80 °C). Also, the “Concentration relative to initial sample concentration (Rel)” value is 98% in data set [7] (plasma, Low QC, 72 h RT); 98% in data set [7] (plasma, Low QC, three freeze-thaw cycles at −80 °C); 89% in data set [7] (processed sample, High QC, 24 h 5°C); 87% in data set [7] (processed sample, Low QC, 24 h 5°C); 95% in data set [7] (whole blood, High QC, 72 h RT); 94% in data set [7] (whole blood, Low QC, 72 h RT). Further, the “Long-term stability in plasma” value in data set [7] (16 months of storage at −80 °C) was “stable”. For the same compound, the “Stability of processed samples” value in data set [7] (24 h at 5 °C, stable = accuracy within ±15% of nominal) was “stable”. Further, the “Short-term stability in whole blood or plasma” value in data set [7] (72 h at room temperature and at 5 °C, stable = accuracy within ±15% of nominal) is “stable”. For the same compound, the “Concentration relative to nominal concentration (Rel)” value amounted to 106% in data set [7] (plasma, High QC) and 101% in data set [7] (plasma, Low QC). For the same compound, the “Freeze-thaw stability in plasma” value in data set [7] (three freeze-thaw cycles) is given as “stable”. In data set [2], the “Variation of plasma concentration during a 12-h period” value is recorded as 16 fold. In addition, in data set [2], the “Inter-patient coefficient of variation (CV) in maximum concentration at steady state” value is 73%. For the same compound, the Half-life in data set [2] (patients) is 4.8 h.
For the compound `CC(C)c1nc(-c2cccc(NS(=O)(=O)c3c(F)cccc3F)c2F)c(-c2ccnc(N)n2)s1` [Desmethyl-Dab, desmethyl-dabrafenib], in data set [1] (setting [8]), the “Plasma concentration in typical patient sample” value was determined as 660 ng/mL and the “Range of plasma concentration” value is recorded as “(170–660) ng/ml”. In addition, in data set [1], the “Diff (difference between the highest and lowest concentrations)” value is reported as 4-fold. Besides, the “Median C (plasma concentration)” value in data set [1] (setting [9]) is on record as 400^a ng/ml. For the same compound, the “Variation of plasma concentration during a 12-h period” value in data set [2] is given as “around 1.5 fold”. Also, the “IC50 relative to dabrafenib (fold higher)” value in data set [3] is on record as roughly 2 fold.
